Assay results taken from patent US20220073557A1, “FLUORINATED BILE ACIDS” (NZP UK LIMITED, priority 2018, published 2022).
Read-outs that look alike come from different tables or passages of the source.

Legend:
[1] = test system: dopaminergic neurons derived from sPD patients (iNeurons); test: Mitochondrial function and neuronal morphology measurements in iNeurons from sPD patients; type: cell-based, human; details: for EC50: Homo sapiens, Neuron
Method: (§1) Fibroblasts were cultured in DMEM (Invitrogen) and routinely subcultured every 3-5 days using trypsin to dissociate them.
Briefly, iNPCs are plated in a 6-well plate and cultured for 2 days in DMEM/F-12 medium with Glutamax™ supplemented with 1% NEAA, 2% B27 (Gibco) and 2.5 μM of DAPT. On day 3, DAPT is removed and the medium is supplemented with 1 μM smoothened agonist (SAG) and FGF8 (75 ng/ml) for additional 10 days. Neurons are replated at this stage. Subsequently SAG and FGF8 are withdrawn and replaced with BDNF (30 ng/ml), GDNF (30 ng/ml), TGF-b3 […] and dcAMP (2 mM, Sigma) for 15 days.
Cells are plated in 96 well plates; for live imaging cells are incubated for one hour at 37 degree with 80 nM tetramethlyrhodamine (TMRM), 1 μM LysoTracker® Green (Invitrogen) and Hoechst Stain solution (Sigma) at 1 μM before imaging using Opera Phenix™. Cellular ATP measurements are undertaken using ATPlite kit (Perkin Elmer) as per manufacturer's instructions. Mitochondrial reactive oxygen species generation was assessed using mitochondrial NpFR2 (probe; a kind gift from Dr Liz New, University of Sydney, Australia) at 20 μM and Hoechst stain solution at 1 μM for 30 mins at 37° C., then the dyes are removed and cells images using Opera Phenix™. Images generated from the live imaging experiments were analysed using Harmony® (Perkin Elmer software). We developed protocols in order to segment nucleus, cell boundary and processes, mitochondria, lysosomes, autophagosomes. We only analysed the z projection images collected from the z stacks.

[2] = test system: sporadic PD patient fibroblasts; test: Mitochondrial membrane potential (MMP, TMRM) in sporadic PD patient fibroblasts; type: cell-based; details: Homo sapiens, Fibroblast, 24 h
Method: as §1
Fibroblasts were cultured and plated into a Griener black 384 pClear® plate at 10000 cells per well in 50 μl of media volume. The plates are left overnight in an incubator to allow the fibroblasts to adhere to the plate surface. The following morning the Glucose based medium is replaced with 25 μl of Galactose based media. The plates were then dosed with the compounds using an ECHO® 550 liquid handling system. The wells were dosed to provide an 8-point concentration range of 0.06 nM-300 nM of compound. After dosing the wells are topped up with a further 25 μl of Galactose based medium and then left in an incubator for 24 hours. After 24 hours, the medium is removed from the wells and replaced with 25 ul phenol free Minimal essential medium with 100 nM TMRM (Sigma) and 10 μM Hoechst Stain (Sigma). The plate is returned to the incubator for another hour after which the stain medium is removed and replaced with 25 ul Phenol free MEM. The plate is then imaged using an IN Cell high content microscope (GE Healthcare) with 10 fields of view per well in 2 channels, Cy3 excitation 542 nm, emission 604-64 nm; and the DAPI excitation 350 nm, emission 450-55 nm at 37° C. with CO2. After imaging the plate is disposed of and the images are Data mined using the INCell developer Toolkit (GE Healthcare).
After the assays had been repeated in triplicate per line and compound the data was then inputted into Graph pad Prism 7 software suite where a dose response curve is generated using the default “[Agonist] vs response (three parameters)” equation.
From this EC50 values, lowest response and maximal response were taken and used to calculate the Geometric mean between the 5 different lines assessed.
The mitochondrial membrane potential was measured in fibroblasts from 6 (Table 1) or 3 (Table 2) patients with sporadic Parkinson's disease when treated with Compounds of the invention or Comparator compounds. The results are shown in Tables 1 and 2, where “Bottom”=max response with lowest dose of compound (0.06 nM) and “top”=max response with highest dose of compound (300 nM).

[3] = test system: mitochondrial respiratory chain complex I; test: Complex I assay, left striatum brain homogenate of mice dosed with or without MPTP; type: in vivo, mouse; details: for Complex I activity with concurrent MPTP treatment: left striatum
Method: (§2) Ex vivo mice brain was homogenated in a buffer of 250 mM sucrose, 20 mM HEPES, 3 mM EDTA, pH 7.5 at 4° C. Homogenisation was carried out using a Dounce homogenizer, for cortex samples, and by repetitive passage through a 0.5 mm syringe for isolated striatum. Samples were then incubated with 30 μl of detergent from the AbCam colorimetric Complex I assay kit on ice for 20 minutes. Samples are then centrifuged at 13,000 rpm for 30 mins. Triplicate samples per condition were blocked using the kit blocking buffer on the AbCam colorimetric Complex I assay kit plate for 3 hours. Samples are then washed using the kit wash buffer 3 times before the addition of the kit assay buffer containing NADH and colorimetric dye. The assay plate is read on a plate reader in a kinetic assay programme reading 450 nm in a 30 second interval for 50 minutes.

[4] = test system: mitochondrial respiratory chain complex I; test: Complex I assay, whole brain homogenate of dosed wild type mice; type: in vivo; details: wild type mouse whole brain homogenate, FIG. 3
Method: as §2

## C[C@H](CCC(=O)O)[C@H]1CC[C@H]2[C@@H]3[C@@H](O)C[C@@H]4C[C@@H](O)C(F)(F)C[C@]4(C)[C@H]3CC[C@]12C [Compound 7, 2,2-difluoro-3β,7β-dihydroxy-5β-cholanic acid]
[1]; read-out: ATP EC50 (nM)
  EC50: 0.8 nM
[1]; read-out: MMP EC50 (nM)
  EC50: 0.52 nM
[1]; iNeurons from sPD patients, untreated sPD 48
  Neuronal morphology (elongation; % controls): 78 % controls
[1]; iNeurons from sPD patients, untreated sPD 50
  ATP normalisation (% of controls): 101 % of controls
[1]; iNeurons from sPD patients, untreated sPD 52
  MMP normalisation (% of controls): 100 % of controls
[1]; iNeurons from sPD patients, untreated sPD 115
  ROS (Normalisation) (% controls): 103 % controls
[2]; read-out: MMP Bottom (% of vehicle treated)
  activity at 60 pM: 100%
[2]; read-out: MMP EC50 (nM)
  EC50: 4.07 nM
[2]; read-out: MMP Top (% of vehicle treated)
  activity at 0.3 µM: 114%
[3]; left striatum mouse brain homogenate, Vehicle+12 mg Compound 7 alone, FIG. 4
  Increase in complex I activity over untreated controls: approximately 30%
[3]; MPTP + 1 mg Compound 7, p<0.01 vs MPTP alone
  Complex I activity with concurrent MPTP treatment: retains complex I at normal levels
[3]; MPTP + increased doses (4 mg, 12 mg) of Compound 7
  Complex I activity with concurrent MPTP treatment: appears to prevent any loss of complex I activity by MPTP
[4]; 4 mg/kg dose
  Increase in Complex I activity compared to untreated controls: approximately 380%
[4]; 12 mg/kg dose
  Increase in Complex I activity compared to untreated controls: approximately 800%
